For orientation: IC50 means the point on the concentration scale where inhibition reaches its midpoint.

What all share (assay type): cell-based
One experiment deals with HEK-293T. Briefly: Toxicity with/without β-glucuronidase, HEK-293T. Particulars: Homo sapiens, read-out: IC50 β-lapachone, 1. Here is the method:
(§1) Assays assessing cytotoxicity of β-lapachone and derivatives were performed by CellTiter-Blue assay (Promega) according to the manufacturer's instructions. Briefly, adherent cancer-cell lines were plated at 20,000 cells/well in 96 well plates or suspension cell lines were plated at a concentration of 2×10^5 cells/mL in 24 well plates. Compound stocks in media were made by dilution of DMSO stocks containing the compound of interest to obtain a final in-plate DMSO concentration of only 0.1%. Incubation was performed for 48 h. Following incubation, media was replaced with media containing CellTiter-Blue (Promega) in 1:10 dilution and the plates were incubated for 1.5-4 h. The fluorescence of the plates was recorded (excitation 555 nm, emission 585 nm, MiniMax i3x Reader, Molecular Devices).
(§2) Cell viability was calculated by division of the fluorescence intensity of treated wells by that of the calculated average fluorescence intensity of replicate negative control wells containing cells with 0.1% DMSO only. Values and reported error bars represent the mean and standard error of the mean of three triplicate repeats for each concentration tested. IC50 values were calculated using GraphPad Prism 8 software.
(§3) The potential of compound 37a, glucuronide-PHB-BL, as a prodrug was investigated. As discussed above, at physiological pH the compound has a relatively slow-release rate. Toxicity of Gluc-PHB-BL 37a was tested against a range of cell lines with and without added β-glucuronidase. Addition of the enzyme mimics conditions of the solid tumour environment.

Experiment [1] relates to HeLa (cervical cancer cell line). The experiment is described as follows: Viability assay (CellTiter-Blue), HeLa. To be noted: Homo sapiens. How it is done:
as §1, with “MiniMax i3x” left out, “Devices). Cell viability was calculated by division of the fluorescence intensity of treated wells by that of the calculated average fluorescence intensity of replicate negative control wells containing cells with 0.1% DMSO only. Values and reported error bars represent the mean and standard error of the mean of three triplicate repeats for each concentration tested.” for “Devices).”
(In general: Alamar Blue is a resazurin reagent that responds to reducing activity.)

For experiment [2], the system named is HCT-116 (colon cancer cell line). The experiment is described as follows: Viability assay (CellTiter-Blue), HCT-116. Particulars: Homo sapiens. Here is the method: as §1, with “MiniMax i3x” left out, “Devices). Cell viability was calculated by division of the fluorescence intensity of treated wells by that of the calculated average fluorescence intensity of replicate negative control wells containing cells with 0.1% DMSO only. Values and reported error bars represent the mean and standard error of the mean of three triplicate repeats for each concentration tested.” for “Devices).”

The test system of a further experiment is HL-60 cells. Briefly: Lysosomal inhibition assay with small molecule prodrugs. Particulars: HL-60, NH4Cl at 30 mM. Here is the method: Assays to assess the effect of lysosomal activity on prodrugs were performed as follows: HL-60 cells were plated into 96 well plates at a concentration of 2.5×10^5 cells/mL in 180 μL media. Cells were treated with 10 μL of a stock of NH4Cl in PBS (to obtain an in-plate concentration of 3 or 30 mM), 10 μL of a dilution of a DMSO stock of E64d in PBS (to obtain an in-plate concentration of 30 μM), PBS only, or a dilution of DMSO in PBS. Cells were incubated for 30 min. Following this, 10 μL of a stock of test compound made by dilution of a DMSO stock into media was added. DMSO was present in-plate at a maximum of 0.2%. Cells were incubated overnight for 16 h. Following incubation, media was replaced with media containing CellTiter-Blue (Promega) in 1:4 dilution and the plates were incubated for 6 h. The fluorescence of the plates was recorded (excitation 555 nm, emission 585 nm, MiniMax i3x Reader, Molecular Devices). Cell viability was calculated by division of the fluorescence intensity of treated wells by that of the calculated average fluorescence intensity of the relevant negative control wells. Values and reported error bars represent the mean and standard error of the mean of three triplicate repeats for each concentration tested.

A further experiment relates to HeLa. The experiment is described as follows: Toxicity with/without β-glucuronidase, HeLa. Particulars: Homo sapiens, read-out: IC50 β-lapachone, 1. How it is done:
as §1, §2, §3

The structures appear in SMILES notation.

Consider `CC1(C)CCC2=C(O1)c1ccccc1C(=O)C2=O` [Compound 1, β-lapachone, reference compound], for which the IC50 stood at 2.91 µM with HEK-293T, 4.2 µM in experiment [1], 1.1 µM in experiment [2] and 4.26 µM in the experiment with HeLa. The “toxicity with NH4Cl” value in the experiment with HL-60 cells was “increase in toxicity”.
